# Source: patent US20020173475A1 (priority 2001, published 2002)
# Assays:
# PV 5′ UTR RNA = assay type: binding, poliovirus
# [1] = system: IRES initiated translation; details: cited from earlier work
Sequence,binding to PV 5′ UTR RNA relative to wild-type La antigen (PV 5′ UTR RNA),inhibition of IRES initiated translation [1]
AALEAKICHQIEQQFGDF [Peptide 772],dramatically reduced binding,–
AALEAKICHQIEYYFGDF [LAP],–,inhibit this translation
AALEAKICHQIEYYQGDQ [Peptide 771],dramatically reduced binding,–
